This note sets out measurements from patent US9556242B2, “Method for regulating circadian rhythms” (ANYGEN CO., LTD., priority 2011, dated 2017).

Entries after “also recorded” stand apart in the source; their conditions may differ.

The test system of this test is per2 promoter. The test is described as follows: Per2-luciferase activity in cultured mouse brain sections including SCN after NQ peptide treatment. It counts as cell-based. To be noted: for effects in the Per2 phase advance or delay: 100 nM for 4 hours; for phase-advance effect on Per2 circadian activity: NQ peptide forms and mutants treated to incubated brain section including SCN (FIG. 15); for phase changes / activity period of per2 promoter: treated at the highest point of per2 activity; for phase changes / activity period of per2 promoter / free-running period after treatment: 5 μM (FIG. 12); for free-running period after treatment: treated at the lowest point of per2 activity. Here is the method:
Animals used in this experiment were transgenic mice in which the construct inserted Luciferase gene behind per2 promoter was knocked-in. The mice were sacrificed. The brain was speedily isolated and sectioned in a thickness of 400 μm including SCN. The mouse brain tissue sections were incubated in media containing 1% penicillin/streptomycin antibiotics, 25% Horse Serum, 25% Hank's Buffered Salt Solution (HBSS), 50% Minimum Essential Medium (MEM) and 0.3 mM luciferin. At 5 days after the incubation, the synthetic NQ peptides were treated with 5 μM of final concentration. Then, luciferase activity derived from changes of per2 promoter activities was observed.
The NQ peptides were treated with 100 nM of the concentration at 2, 6, 10, 14, 20 and 22 hours after the peak in Per2 activity with the 24-hour intervals wave. The treatment was maintained 4 hours. Then, the media were changed.
The NQ peptides were treated with 2 nM, 20 nM, 200 nM and 2000 nM of the concentrations for 4 hours to the sections at 10 hours after the peak in Per2 activity. Then, the media were changed to the original media (50% minimum essential medium, 25% gey's balanced salt solution, 25% horse serum, 36 mM glucose, and 100 units/ml aerosolized antibiotics) containing 0.3 mM luciferin to limit drug duration of the NQ peptide.
To achieve this, the present inventors have synthesized mutants: deletion mutant sequencing from first Asn to tenth Leu among the amino acid sequences as set forth in SEQ ID NO:2; optical isomer mutant 1 in which the second Trp residue is modified to D-form Trp; and optical isomer mutant 2 in which the eleventh Lys residue is modified to D-form Lys.
The NQ peptide as set forth in SEQ ID NO:2 or 3, or the NQ peptide mutants were respectively treated to the incubated brain section including SCN. Particularly, the NQ peptide as set forth in SEQ ID NO:2 found in humans and mouse was simultaneously treated with the a-NQ-S antibody as neutralization substance to elucidate those specific effects with more accuracy. […] Therefore, it could be understood that the carboxyl-terminus sequencing from the eleventh Lys residue to Gln as well as the second Trp residue and the eleventh Lys residue in the amino acid sequence of NQ peptide as set forth in SEQ ID NO:2 are very important in physiological activity.

Regarding NWTPQAMLYLKGAQ-NH2 [NQ peptide], the “phase changes / activity period of per2 promoter” value is listed as “not changed” and the “free-running period after treatment” value is on record as “approximately 22.3 hours”. Also, the “effects in the Per2 phase advance or delay” value (shortened to “effects”) (treated at 2 hours after the peak in Per2 activity (FIG. 13)) is “negligible or barely shown”. The “effects” value (treated at 6 hours after the peak in Per2 activity (FIG. 13)) is “negligible or barely shown”. The “effects” value (treated at 10 hours after the peak in Per2 activity (FIG. 13)) is reported as “significantly advanced”. Besides, the “effects” value (treated at 14 hours after the peak in Per2 activity (FIG. 13)) is given as “significantly advanced”. In addition, the “effects” value (treated at 20 hours after the peak in Per2 activity (FIG. 13)) is “significantly advanced”. Besides, the “effects” value (treated at 22 hours after the peak in Per2 activity (FIG. 13)) was “negligible or barely shown; also recorded: negligible”. In addition, the “highest effect time (after peak in Per2 activity)” value (100 nM, phase-dependent treatment (FIG. 13)) is 10 h. Besides, under “2, 20, 200, 2000 nM for 4 hours at 10 hours after the peak (lowest point) in Per2 activity (FIG. 14)”, the “dose dependence of Per2 phase-advance effect” value was “advanced proportionally to the concentration; also recorded: dose-dependent manner”. In addition, for the setting “4 hours treatment at 10 hours after the peak in Per2 activity (FIG. 14)”, the “concentration range in which Per2 expression period was advanced proportionally” value is 20 to 200 nM. Further, where the note is “listed as NQ peptide as set forth in SEQ ID NO:2”, the “phase-advance effect on Per2 circadian activity” value is on record as “caused the advance effects in circadian activity; also recorded: changed the Per2 phase; also recorded: showed phase-advance effects of Per2”. In addition, the “free-running period advanced by” value (synthetic NQ peptide treated at the lowest point in Per2 phase, mouse brain section (FIG. 12)) is recorded as “approximately 2.80 hours”. Besides, where the note is “listed as synthetic NQ peptide”, the “phase changes / activity period of per2 promoter” value is “negligible or barely shown” and the “free-running period after treatment” value is “approximately 22.87 hours”. Moreover, the “highest concentration of the NQ peptide (phase-advance effect)” value (treated at the lowest point in Per2 phase (FIG. 14)) was found to be 200 nM. For the same substance, the “activity period of per2 promoter” value (treated at the point in which per2 shows the highest activity, 5 μM) is listed as “approximately 24 hours”.

As for “NQ peptide as set forth in SEQ ID NO:3: form of the NQ peptide found in rat; His residue at the carboxyl-terminus instead of the amide group (NWTPQAMLYLKGAQGH; NQ Peptide 3)”, the “phase-advance effect on Per2 circadian activity” value was “caused the advance effects in circadian activity; also recorded: changed the Per2 phase; also recorded: showed phase-advance effects of Per2”.
